This note sets out measurements from ChEMBL document CHEMBL3627710, “Mitochondrial targeted β-lapachone induces mitochondrial dysfunction and catastrophic vacuolization in cancer cells” (Bioorg Med Chem Lett, 2015).

The subject of data set [1] is WM983B. Nature of the data set: Cytotoxicity against human WM983B cells assessed as decrease in cell viability at 2 to 10 uM after 24 hrs by Celltiter-Blue assay. In kind it is functional, cell-based. (The colour change of resazurin is a common sign of viable cells or microbes.)
Data set [2] concerns A549. Description: Induction of ROS generation in human A549 cells at 6 uM for 16 hrs by DCF dye based flow cytometry. In kind it is functional, cell-based. Background: In flow cytometry, cells or beads pass a laser one at a time.
The test system of data set [3] is A549. Nature of the data set: Induction of apoptosis in human A549 cells assessed as early apoptotic cells by annexin-V/PI staining analysis (reference value: 1.1%). In kind it is functional.
Data set [4] relates to A549. Description: Cytotoxicity against human A549 cells assessed as decrease in cell viability at 10 uM for 4 hrs measured after 3 days by Celltiter-Blue assay. In kind it is functional, cell-based.
For data set [5], the system named is A549. Nature of the data set: Induction of autophagy in human A549 cells assessed as increase in LC3-2 expression by western blot analysis. In kind it is functional, cell-based. Background: Immunoblotting shows a protein as a band on a membrane.
In data set [6] the test system is A549. Nature of the data set: Induction of apoptosis in human A549 cells assessed as viable cells by annexin-V/PI staining analysis (reference value: 97.6%). In kind it is functional.
Data set [7] concerns A549. Description: Cytotoxicity against human A549 cells assessed as decrease in cell viability after 24 hrs by Celltiter-Blue assay. In kind it is functional, cell-based.
Data set [8] concerns A549. Nature of the data set: Effect on oligomycin-induced inhibition of mitochondrial respiration in human A549 cells assessed as oxygen consumption rate by extracellular flux analyzer. In kind it is functional, cell-based.
Data set [9] in a line: Cytotoxicity against human IMR90 cells assessed as slight decrease in cell viability at 10 uM for 4 hrs measured after 3 days by Celltiter-Blue assay. The format is cell-based. As to conditions: imr-90, 10 µM.
In data set [10] the test system is A549. Description: Induction of apoptosis in human A549 cells assessed as necrotic cells by annexin-V/PI staining analysis (reference value: 0.3%). The format is functional.
In data set [11] the test system is A549. Description: Cytotoxicity against human A549 cells assessed as vacuoles formation at 6 uM after 20 hrs by phase contrast microscopy. In kind it is functional, cell-based.
Data set [12] deals with A549. Description: Effect on mitochondrial morphology in human A549 cells assessed as vacuoles formation by electron microscopy. The format is functional, cell-based.
Data set [13] concerns MDA-MB-231. Nature of the data set: Cytotoxicity against human MDA-MB-231 cells assessed as decrease in cell viability at 2 to 10 uM after 24 hrs by Celltiter-Blue assay. In kind it is functional, cell-based.
For data set [14], the system named is A549. Nature of the data set: Induction of apoptosis in human A549 cells assessed as late apoptotic cells by annexin-V/PI staining analysis (reference value: 1.0%). In kind it is functional.
Data set [15] deals with A549. Nature of the data set: Induction of ROS generation in human A549 cells at 6 uM for 16 hrs by MitoSox dye based flow cytometry. The format is functional, cell-based.
Data set [16] relates to PEO1. Nature of the data set: Cytotoxicity against human PEO1 cells assessed as decrease in cell viability at 2 to 10 uM after 24 hrs by Celltiter-Blue assay. In kind it is functional, cell-based.
The test system of data set [17] is A549. Nature of the data set: Effect on mitochondrial morphology in human A549 cells assessed as onion skin-like structures of mitochondria by electron microscopy. The format is functional, cell-based.

The source made the active and inactive calls. The rule behind the calls is not given here.

As for `CC(C)C[C@@H](/C=C/[C@H](Cc1ccccc1)C(=O)N1CCC[C@H]1C(=O)N[C@H](C(=O)N[C@@H](CCCNC(=O)OCc1ccccc1)C(=O)NCCC(=O)OC1CC2=C(OC1(C)C)c1ccccc1C(=O)C2=O)C(C)C)NC(=O)OC(C)(C)C` (stereo not given in full), the inhibition result in data set [1], in data set [4], in data set [13] and in [16] was “Active” throughout. Further, the result in data set [2], in data set [5], in data set [11], in data set [12], in data set [15] and in data set [17] was Active. Also, the Activity in data set [3] was 3.9%; in data set [6], 60.9%; in [9], “Toxic”; in data set [10], 3.7%; in data set [14] it was 31.5%. The inhibition entry in data set [7] is “Dose-dependent effect”. Further, the result in data set [8] was inactive.

In the case of `CC1(C)OC2=C(CC1O)C(=O)C(=O)c1ccccc12` (stereo not given), the Activity in data set [3] was 4%; in [6] it was 89.2%; in [10] it was 1.1%; in [14] it was 5.7%. In addition, the outcome in data set [5] and in data set [11] was inactive. In addition, the inhibition result in data set [7] was “Dose-dependent effect”. In addition, in data set [8], the result was Active.
